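Each compound was tested at five concentrations against cells in 96-well plates for 48 hours. GI50: concentration for 50% inhibition of growth. TGI: total growth inhibition.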 Where a SMILES comes first, the peptide text is derived from it.
Legend:
Test in all cases: NCI tumour cell line growth inhibition, 48 h
[1] = test system: MOLT-4 leukemia
[2] = test system: NCI-H226 lung
[3] = test system: K-562 leukemia
[4] = test system: SN12C renal
[5] = test system: SNB-19 CNS
[6] = test system: SW-620 colon
[7] = test system: OVCAR-4 ovarian
[8] = test system: HCC-2998 colon
[9] = test system: PC-3 prostate
[10] = test system: DU-145 prostate
[11] = test system: MDA-N

Structure (SMILES)	TGI [1] [µM]	TGI [2] [µM]	TGI [3] [µM]	TGI [4] [µM]	TGI [5] [µM]	TGI [6] [µM]	TGI [7] [µM]	TGI [8] [µM]	TGI [9] [µM]	TGI [10] [µM]	TGI [11] [µM]	GI50 [10] [µM]	GI50 [9] [µM]	GI50 [3] [µM]	GI50 [5] [µM]	GI50 [6] [µM]	GI50 [7] [µM]	GI50 [8] [µM]
Cc1cccc(=O)c([O-])c1.Cc1cccc(=O)c([O-])c1.Cc1cccc(=O)c([O-])c1.Cc1cccc(=O)c([O-])c1.[Th+4]	> 27	> 100	> 38.6	> 100	> 100	> 100	> 100	> 100										
COc1ccc(C2C3=CONC3CC3CCCCC32)cc1 (centres undefined)	> 100	> 100	> 100		> 100	> 100	> 100	47.3	> 100									
COc1ccc(C[C@H]2COC(=O)[C@@H]2Cc2ccccc2)cc1OC	> 100	> 100	> 100	> 100	> 100	> 100			> 100	> 100	> 100							
Cc1ccc(Cl)c2c(=O)cc(-c3ccccc3)[nH]c12	> 100	> 100	> 100	> 100		> 100	> 100											
COc1ccccc1NC(=O)CSC(N)=O		> 100	> 100	> 100	> 100	> 100	> 100	> 100										
C=C1CN=C(Nc2ccc(F)cc2F)S1	96.5		> 100	> 100	> 100	> 100	> 100	> 100	> 100	> 100	> 100							
Cc1ccc(S(=O)(=O)CC2CCCn3c2c(C#N)c2ccccc23)cc1 (centres undefined)	> 100	> 100	> 100	> 100	> 100	> 100	> 100	> 100	> 100	> 100								
Cc1ccc(C2(N3CCOCC3)OC(C)(C)c3cccc4cccc2c34)cc1 (centres undefined)	> 100	35.8	> 100	32.5	32.6	37	31.1		34.2	37	34.1							
N#C[C@H]1C(=O)C(c2nc3ccccc3[nH]2)S[C@H]1c1ccccc1 (some centres undefined)	> 100	> 100	> 100	91.3	> 100	> 100	> 100	> 100		> 100								
CCOC(=O)/C(C1=N[C@H](C(=O)OCC)CS1)=C(\O)c1ccccc1	> 100	> 100	> 100	> 100	> 100	> 100	> 100	> 100										
C/C(=N\NC(=O)c1ccncc1)c1cccc(C(F)(F)F)c1	> 10	> 10	> 10	> 10		> 10	> 10	> 10		> 10	> 10							
CCC(C)C(NC(=O)C1CCCN1)C(=O)NC(C(=O)NCC(=O)NC(CC(N)=O)C(=O)NC(CC(C)C)C(=O)NC(CC(C)C)C(=O)NC(CCCCN)C(N)=O)C(C)C (centres undefined) (H-PIVGNLLK-NH2; configuration not given here)	> 75	> 75	> 75	> 75	> 75	> 75	> 75		> 75	> 75	> 75							
Nc1cc2ncnc(Nc3cccc(Br)c3)c2cn1	> 100	71	> 100	> 100	> 100	> 100	> 100		> 100		> 100							
CCCCN(CCCC)C1=Nc2ccccc2-n2c(nnc2C(=O)OCC)C1	84.1	> 100	86.9	> 100	> 100	> 100	> 100	> 100	51.6	> 100								
CC(=O)OCC1(CNc2nc(N)ncc2C#N)CC(CCc2ccccc2)C1 (centres undefined)	> 100	> 100	> 100	> 100		> 100	> 100		> 100	> 100	> 100							
CC(=O)CCCCCCCCCCCC[C@@H]1CC[C@H](C)[C@H](O)N1	> 100	> 100	> 100		> 100	> 100		> 100										
Cn1c(O)c(/C=N/c2ncccn2)c(=O)[nH]c1=O	> 100	> 100		> 100	> 100	> 100	> 100		> 100	> 100	> 100							

Structure (SMILES)	TGI [1] [µM]	TGI [2] [µM]	TGI [3] [µM]	TGI [4] [µM]	TGI [5] [µM]	TGI [6] [µM]	TGI [7] [µM]	TGI [8] [µM]	TGI [9] [µM]	TGI [10] [µM]	TGI [11] [µM]	GI50 [10] [µM]	GI50 [9] [µM]	GI50 [3] [µM]	GI50 [5] [µM]	GI50 [6] [µM]	GI50 [7] [µM]	GI50 [8] [µM]
COc1ccc(-c2cc(-c3ccc(OC)c(OC)c3)nc(SCCCC(=O)NO)n2)cc1			> 100		39.1	10.7	> 100	5.63	> 100	17.7		1.53	2.07	1.11	2.54	0.906	2.02	2.14
O=[N+]([O-])c1cccc([N+](=O)[O-])c1Cl	> 100	68.4	> 100	79.9	33.2	> 100	45.6		38.7	11.4								
CC(C)(C)C(=O)O[C@H]1C=C[C@@H](O)[C@@H]2[C@H]1[C@@H]1C=C[C@H]2C1	83.8		> 100	41	> 100	> 100	60	32.4		> 100	> 100							
CC(C)NCCNC(=O)c1ccccc1Nc1c(Cl)cccc1Cl	27.3	30.1		26.8	30	30.4	30.3											
O=C(NCCNCCO)N/N=C/c1ccccc1	> 100	> 100	> 100	> 100	> 100	> 100	> 100											
C=C(C)C(=O)O[C@H]1CC2(CO)O[C@@H]2CC/C(COC(C)=O)=C/C2OC(=O)C(=C)[C@@H]21 (some centres undefined)	29.8	> 100	74	> 100	> 100	54.7	> 100	> 91.6	> 100	> 100								
c1cc2c3c(c1)[C@@H]1O[C@@H]1c1cccc(c1-3)[C@@H]1O[C@H]21	> 100	> 100	> 100	54.2	> 100		56.3		51.9	38.7	41.9							
C/C=C\C(CC(=O)NCCc1c[nH]c2ccccc12)CC(=O)OC (centres undefined)	> 100		> 100		> 100	> 100	> 100	> 100	> 100	> 100	> 100							
COC(C/C=C\C=C\CC/C=C/CC(C)/C=C/C(=C\C(=O)O)CC(=O)O)/C(C)=C\C=C(/C)C(=O)O (centres undefined)	> 100			> 100	> 100	> 100	> 100	> 100	> 100	> 100	> 100							
O=c1[nH]nc(N/N=C\c2ccc(Cl)cc2)c2ccccc12	> 100	57.4	81.1	73	43.1	> 100	> 100		40.2	72								
O=c1n(C2CCCCC2)c(=C(Cl)Cl)c(=C(Cl)Cl)n1C1CCCCC1	> 100	> 100	> 100	> 100	> 100	> 100	> 100	> 100										
C/C(=C\COP(=O)(O)OP(=O)(O)O)CC/C=C(\C)CNc1ccccc1	> 50	> 50	> 50	> 50	> 50	> 50			> 50	> 50								
O=C1/C(=C/C=C/c2ccccc2)CCC1CNc1ccc(Br)cc1 (centres undefined)	> 100	> 100	> 100	> 100	> 100	> 100	> 100	> 100	> 100	> 100								
c1ccc2c(c1)ccc1nc(-c3ccc4c(c3)OCO4)c3c(c12)CCC3	> 100	> 100	> 100	> 100	> 100	> 100	> 100	> 100	> 100		> 100							
O=C1C(Cl)C(c2cccc(O)c2)N1n1cnc2ccccc2c1=O (centres undefined)	> 100	> 100	> 100	> 100	> 100	> 100	> 100	> 100										
NNc1nnc(-c2ccccc2)nc1Cc1ccccc1	> 100	6.43	> 100	51.6	> 100	> 100	> 100	> 100										
COc1c(-c2ccc(F)cc2)oc2cc(O)cc(O)c2c1=O	> 100		> 100	83.6	> 100	> 100		31.9	> 100	96.5	62							
